{
  "source": "paper PMC4604124",
  "about": "“In Vitro Characterization of the Pharmacological Properties of the Anti-Cancer Chelator, Bp4eT, and Its Phase I Metabolites” (PLoS ONE, 2015)",
  "key": {"[1]": {"assay": "MTT cytotoxicity assay, 3T3 cells", "format": "cell-based, mouse", "details": "mouse, 3T3 mouse embryo fibroblasts, 3T3, 10 000 b/j; for viability at 72 h, 1 μM: koncentrace 1 μM; for viability at 72 h, 3 μM: koncentrace 3 μM; for viability at 72 h, 10 μM: koncentrace 10 μM; for viability at 72 h, 30 μM: koncentrace 30 μM; for viability at 72 h, 100 μM: koncentrace 100 μM; for viability at 72 h, 300 μM: koncentrace 300 μM; for viability at 72 h, 1000 μM: koncentrace 1000 μM", "method": "(§1) For cytotoxicity experiments, cancer cells were seeded at a density of 5,000 (MCF-7), 10,000 (HL-60) or 2,000 cells/well (HCT116 and A549) in 96-well plates (TPP) for 24 h/37°C prior to the addition of examined agents. The non-cancerous cells, 3T3 and H9c2 cells, were cultured for 24 h/37°C in 96-well plates at a density of 10,000 cells/well, the medium was then changed to serum- and pyruvate-free DMEM (Sigma-Aldrich) and incubated with the cells for another 24 h/37°C. The cytotoxic effects of Bp4eT and its metabolites were studied at different concentrations after a 72 h/37°C incubation. In order to aid the dissolution of the lipophilic ligands, 0.1% dimethyl sulfoxide (v/v) (DMSO; Sigma-Aldrich) was present in the culture medium of all groups. At this concentration, DMSO had no effect on cellular proliferation or viability.\n(§2) The viability of cells were determined using an MTT assay (Sigma-Aldrich) according to previously established methods. The optical density of soluble MTT was measured at λ = 570 nm, subtracting the λ = 690 nm background using a Tecan Infinite 200M plate reader (Tecan Group, Männedorf, Switzerland). The viability or proliferation of experimental groups was expressed as a percentage of the untreated controls (100%).\n(§3) SigmaStat for Windows 3.5 (Systat Software, San Jose, CA, USA) statistical software package was utilized to analyze results. The data are expressed as the mean ± SD of a given number of experiments. Statistical significance was determined using a one-way ANOVA with a Bonferroni post-hoc test or Student’s t-test. The results were considered to be statistically significant when p < 0.05. The IC50 values were calculated using CalcuSyn 2.0 software (Biosoft, Cambridge, UK). Cell cycle analysis was evaluated using MultiCycle AV Software (Phoenix Flow Systems, San Diego, CA, USA)."}, "[2]": {"system": "3T3 mouse embryo fibroblasts", "assay": "MTT cytotoxicity assay, 3T3 cells", "format": "cell-based", "details": "for IC50: MTT", "method": "as §1, §2, §3"}, "[3]": {"system": "MCF-7 cells", "assay": "Cell cycle analysis by flow cytometry (propidium iodide)", "format": "cell-based, human", "details": "0.1 μM, 72 h, control 33%", "method": "To examine the effect of the agents on the cell cycle, MCF-7 cells were seeded in 60 mm Petri dishes at a density of 240,000 cells/dish and incubated with Bp4eT or its metabolites for 72 h/37°C. The cells were then harvested, fixed by ethanol and stained by propidium iodide (Molecular Probes, Eugene, OR, USA) for 30 min/37°C, as described previously. Cells were analyzed using Accuri C6 flow cytometer (Becton Dickinson and Company, San Jose, CA USA). Propidium iodide was excited at λex = 488 nm and fluorescence analyzed at λem = 585 nm (FL-2) with a total of 10,000 events collected per analysis.\nas §3"}, "[4]": {"assay": "Viability (viabilita) used to normalise caspase activity", "format": "cell-based, human", "details": "human, MCF-7 cells, kontrola = 100", "from_the_text": "Supplement pone.0139929.s002.zip/caspases activity.xlsx, sheet \"results_viability\""}, "[5]": {"system": "caspase 8", "assay": "Caspase activity, luminescent kit, caspase 8", "format": "cell-based, human", "details": "for kaspáza 8, raw signal / kaspáza 8, signal / viabilita: individual experiments by date; for kaspáza 8, raw signal, průměry / kaspáza 8, % kontroly / kaspáza 8, signal / viabilita, průměry: mean; for kaspáza 8, % kontroly / kaspáza 8, signal / viabilita / kaspáza 8, signal / viabilita, průměry: normalised to viability", "method": "To assess the effect of the compounds on caspase activity, MCF-7 cells were incubated with 100 nM Bp4eT or its metabolites for 3, 24 or 72 h/37°C in 96-well plates, as described above. The cells were then lysed by adding 100 μL of cold lysis buffer (100 mM HEPES, 10 mM CHAPS, 10 mM D-L-dithiothreitol, pH 7.4) to 100 μL of medium in each well. Lysates were immediately frozen at -80°C. Thawed lysates were used to assess caspase activity using luminescent kits for caspases 3/7, 8 and 9 (Promega, Madison, WI, USA). The luminescence was measured using the Tecan Infinite 200M plate reader. Caspase activity in the experimental groups was corrected according to the cellular viability of each group and expressed as a percentage of activity of the untreated control (100%)."}, "[6]": {"details": "individual experiments, read-out: MTT viability (0 = 100)"}, "[7]": {"details": "mean, read-out: MTT viability (0 = 100), průměr"}},
  "note": "Several values for one entry are separate records, joined by “and”; a condition that tells them apart may be missing. Equal entries are not always repeated. Where two headings read alike, the source gives them in different places.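 Wherever viabilita is given: compound tested at 100 nM.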",
  "data": [
    {"smiles": "CCN=CNN=C(c1ccccc1)c1ccccn1", "note": "[Bp4eA, N ^3-ethyl-N ^1-[phenyl(pyridin-2-yl)methylene]formamidrazone]", "values": [
      {"measurement": "viability at 72 h, 1 μM", "setting": "[1]; [6]", "result": 110, "unit": "%"},
      {"measurement": "viability at 72 h, 1 μM", "setting": "[1]; [7]", "result": 100, "unit": "%"},
      {"measurement": "viability at 72 h, 3 μM", "setting": "[1]; [6]", "result": 106, "unit": "%"},
      {"measurement": "viability at 72 h, 3 μM", "setting": "[1]; [7]", "result": 98.2, "unit": "%"},
      {"measurement": "viability at 72 h, 10 μM", "setting": "[1]; [6]", "result": 103, "unit": "%"},
      {"measurement": "viability at 72 h, 10 μM", "setting": "[1]; [7]", "result": 94.7, "unit": "%"},
      {"measurement": "viability at 72 h, 30 μM", "setting": "[1]; [6]", "result": 101, "unit": "%"},
      {"measurement": "viability at 72 h, 30 μM", "setting": "[1]; [7]", "result": 92.8, "unit": "%"},
      {"measurement": "viability at 72 h, 100 μM", "setting": "[1]; [6]", "result": 88.8, "unit": "%"},
      {"measurement": "viability at 72 h, 100 μM", "setting": "[1]; [7]", "result": 87.3, "unit": "%"},
      {"measurement": "viability at 72 h, 300 μM", "setting": "[1]; [6]", "result": 80.5, "unit": "%"},
      {"measurement": "viability at 72 h, 300 μM", "setting": "[1]; [7]", "result": 78.1, "unit": "%"},
      {"measurement": "viability at 72 h, 1000 μM", "setting": "[1]; [6]", "result": 37.5, "unit": "%"},
      {"measurement": "viability at 72 h, 1000 μM", "setting": "[1]; [7]", "result": 47.2, "unit": "%"},
      {"measurement": "IC50", "setting": "[2]; 3T3, 10 000 b/j, individual experiments, read-out: IC50", "result": "1010 µM and 1150 µM"},
      {"measurement": "MTT viability (0 = 100)", "setting": "[2]; 3T3, 10 000 b/j, koncentrace 1 μM, individual experiments", "result": "95.1233 and 93.3461 and 101.857"},
      {"measurement": "MTT viability (0 = 100)", "setting": "[2]; 3T3, 10 000 b/j, koncentrace 3 μM, individual experiments", "result": "92.5164 and 97.328 and 96.9903"},
      {"measurement": "MTT viability (0 = 100)", "setting": "[2]; 3T3, 10 000 b/j, koncentrace 10 μM, individual experiments", "result": "86.2678 and 91.552 and 97.4344"},
      {"measurement": "MTT viability (0 = 100)", "setting": "[2]; 3T3, 10 000 b/j, koncentrace 30 μM, individual experiments", "result": "90.9815 and 83.2122 and 96.551"},
      {"measurement": "MTT viability (0 = 100)", "setting": "[2]; 3T3, 10 000 b/j, koncentrace 100 μM, individual experiments", "result": "87.8661 and 89.8957 and 82.8198"},
      {"measurement": "MTT viability (0 = 100)", "setting": "[2]; 3T3, 10 000 b/j, koncentrace 300 μM, individual experiments", "result": "76.7642 and 78.9793 and 76.2498"},
      {"measurement": "MTT viability (0 = 100)", "setting": "[2]; 3T3, 10 000 b/j, koncentrace 1000 μM, individual experiments", "result": "48.7008 and 53.1589 and 49.6824"},
      {"measurement": "IC50", "setting": "[2]; Mus musculus, Fibroblast, 3T3, 10 000 b/j, individual experiments, read-out: IC50", "result": 748, "unit": "µM"},
      {"measurement": "IC50", "setting": "[2]; Mus musculus, Fibroblast, 3T3, 10 000 b/j, mean, read-out: IC50, průměr", "result": 1030, "unit": "µM"},
      {"measurement": "IC50", "setting": "[2]; Mus musculus, Fibroblast, 72 h, 3T3, 72 h/37°C, mean ± SD, n ≥ 4, read-out: IC50", "result": "1030 ± 204", "unit": "µM"},
      {"measurement": "Percentage of cells in the G2/M phase", "setting": "[3]", "result": "slight, but significant (p < 0.01–0.05) decrease"},
      {"measurement": "viability at 3 h, 100 nM", "setting": "[4]; 3 hodiny", "result": 96.8, "unit": "%"},
      {"measurement": "viability at 24 h, 100 nM", "setting": "[4]; 24 hodin", "result": 95.6, "unit": "%"},
      {"measurement": "viability at 72 h, 100 nM", "setting": "[4]; 72 hodin", "result": 93, "unit": "%"},
      {"measurement": "kaspáza 8, raw signal", "setting": "[5]; 3 hodiny", "result": "2039 and 1218.5 and 1153 and 868.5"},
      {"measurement": "kaspáza 8, raw signal, průměry", "setting": "[5]; 3 hodiny", "result": 1319.75},
      {"measurement": "kaspáza 8, % kontroly", "setting": "[5]; 3 hodiny", "result": 98.01, "unit": "% kontroly"},
      {"measurement": "kaspáza 8, signal / viabilita", "setting": "[5]; 3 hodiny", "result": "21.0632 and 12.5873 and 11.9107 and 8.972"},
      {"measurement": "kaspáza 8, signal / viabilita, průměry", "setting": "[5]; 3 hodiny", "result": 13.6332},
      {"measurement": "kaspáza 8, raw signal", "setting": "[5]; 24 hodin", "result": "1556 and 1108.5 and 1675.5 and 1199"},
      {"measurement": "kaspáza 8, raw signal, průměry", "setting": "[5]; 24 hodin", "result": 1384.75},
      {"measurement": "kaspáza 8, % kontroly", "setting": "[5]; 24 hodin", "result": 91.04, "unit": "% kontroly"},
      {"measurement": "kaspáza 8, signal / viabilita", "setting": "[5]; 24 hodin", "result": "16.2773 and 11.596 and 17.5273 and 12.5427"},
      {"measurement": "kaspáza 8, signal / viabilita, průměry", "setting": "[5]; 24 hodin", "result": 14.4858},
      {"measurement": "kaspáza 8, raw signal", "setting": "[5]; 72 hodin", "result": "6752 and 5806 and 7204 and 6996"},
      {"measurement": "kaspáza 8, raw signal, průměry", "setting": "[5]; 72 hodin", "result": 6689.5},
      {"measurement": "kaspáza 8, % kontroly", "setting": "[5]; 72 hodin", "result": 103.53, "unit": "% kontroly"},
      {"measurement": "kaspáza 8, signal / viabilita", "setting": "[5]; 72 hodin", "result": "72.5709 and 62.4033 and 77.4291 and 75.1935"},
      {"measurement": "kaspáza 8, signal / viabilita, průměry", "setting": "[5]; 72 hodin", "result": 71.8992}
    ]}
  ]
}
